PubChem BioAssay AID1963435 (Molecular Pharmacology Branch, DTP, NCI, 2024)
Each block holds one compound with its values, some of them ahead of it.

System: PANC-1 complex spheroid growth, percent test/control
Assay: Anticancer human tumor PANC-1 cell line growth inhibition [Asc];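 further: spheroids exposed to agents for 7 days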;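 on viability, T/C: percent viability relative to DMSO vehicle wells taken as 100%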
Conditions: for IC50: curve of first compound; for viability, T/C: stronger effect = lower value
Method in brief: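 Spheroid model: tumor line + HUVEC + hMSC. Single agents and combinations; top conc. at/near clinical Cmax (10 microM if undetermined), half-log dilutions. DMSO stocks at 800-fold test concentration.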

[1] = second compound 0.0316 µM, first compound 0.0316 µM
[2] = second compound 0.0316 µM, first compound 0.1 µM
[3] = second compound 0.0316 µM, first compound 0.316 µM
[4] = second compound 0.0316 µM, first compound 1 µM
[5] = second compound 0.1 µM, first compound 0.0316 µM
[6] = second compound 0.1 µM, first compound 0.1 µM
[7] = second compound 0.1 µM, first compound 0.316 µM
[8] = second compound 0.1 µM, first compound 1 µM
[9] = second compound 0.316 µM, first compound 0.0316 µM
[10] = second compound 0.316 µM, first compound 0.1 µM
[11] = second compound 0.316 µM, first compound 0.316 µM
[12] = second compound 0.316 µM, first compound 1 µM
[13] = second compound 1 µM, first compound 0.0316 µM
[14] = second compound 1 µM, first compound 0.1 µM
[15] = second compound 1 µM, first compound 0.316 µM
[16] = second compound 1 µM, first compound 1 µM
[17] = second compound 3.16 µM, first compound 0.0316 µM
[18] = second compound 3.16 µM, first compound 0.1 µM
[19] = second compound 3.16 µM, first compound 0.316 µM
[20] = second compound 3.16 µM, first compound 1 µM
[21] = second compound 10 µM, first compound 0.0316 µM
[22] = second compound 10 µM, first compound 0.1 µM
[23] = second compound 10 µM, first compound 0.316 µM
[24] = second compound 10 µM, first compound 1 µM

IC50 (second compound 0.0316 µM): 5.83 µM | IC50 (second compound 0.1 µM): 5.83 µM | IC50 (second compound 0.316 µM): 5.43 µM | IC50 (second compound 1 µM): 5.24 µM | IC50 (second compound 3.16 µM): 5 µM | IC50 (second compound 10 µM): 5.88 µM
Compound: C=C(F)C(=O)N1CCN(c2nc(OCC3CCCN3C)nc3c2CCN(c2cccc4cccc(Cl)c24)C3)CC1CC#N (stereo unspecified) + Cc1c(S(C)(=O)=O)c(-c2cc(F)cc(N3CCN(c4ccc(NS(=O)(=O)c5ccc(NC(CCN6CCC(C(=O)OCCCP(=O)(O)O)CC6)CSc6ccccc6)c(S(=O)(=O)C(F)(F)F)c5)cc4)CC3)c2)c(-c2ccc(Cl)cc2)n1C(C)C
viability, T/C [1]: 94.6% | viability, T/C [2]: 95.8% | viability, T/C [3]: 106% | viability, T/C [4]: 100% | viability, T/C (second compound 0.0316 µM, first compound 3.16 µM): 92.4% | viability, T/C (second compound 0.0316 µM, first compound 10 µM): 12.5% | viability, T/C [5]: 97.4% | viability, T/C [6]: 87.6% | viability, T/C [7]: 113% | viability, T/C [8]: 103% | viability, T/C (second compound 0.1 µM, first compound 3.16 µM): 98% | viability, T/C (second compound 0.1 µM, first compound 10 µM): 7.53% | viability, T/C [9]: 101% | viability, T/C [10]: 101% | viability, T/C [11]: 109% | viability, T/C [12]: 103% | viability, T/C (second compound 0.316 µM, first compound 3.16 µM): 91.3% | viability, T/C (second compound 0.316 µM, first compound 10 µM): 3.26% | viability, T/C [13]: 97.8% | viability, T/C [14]: 98.2% | viability, T/C [15]: 117% | viability, T/C [16]: 107% | viability, T/C (second compound 1 µM, first compound 3.16 µM): 88.1% | viability, T/C (second compound 1 µM, first compound 10 µM): 1.2% | viability, T/C [17]: 104% | viability, T/C [18]: 113% | viability, T/C [19]: 114% | viability, T/C [20]: 114% | viability, T/C (second compound 3.16 µM, first compound 3.16 µM): 80% | viability, T/C (second compound 3.16 µM, first compound 10 µM): 4.62% | viability, T/C [21]: 181% | viability, T/C [22]: 180% | viability, T/C [23]: 189% | viability, T/C [24]: 194% | viability, T/C (second compound 10 µM, first compound 3.16 µM): 108% | viability, T/C (second compound 10 µM, first compound 10 µM): 0.69%

IC50 (second compound 0.0316 µM): > 3 µM | IC50 (second compound 0.1 µM): > 3 µM | IC50 (second compound 0.316 µM): > 3 µM | IC50 (second compound 1 µM): > 3 µM | IC50 (second compound 3.16 µM): > 3 µM | IC50 (second compound 10 µM): > 3 µM
Compound: CCN1C(C(=O)NC23CCC(C(=O)O)(CC2)CC3)C(c2cccc(Cl)c2F)C2(C(=O)Nc3cc(Cl)ccc32)C12CCCCC2 (stereo unspecified) + Cc1c(S(C)(=O)=O)c(-c2cc(F)cc(N3CCN(c4ccc(NS(=O)(=O)c5ccc(NC(CCN6CCC(C(=O)OCCCP(=O)(O)O)CC6)CSc6ccccc6)c(S(=O)(=O)C(F)(F)F)c5)cc4)CC3)c2)c(-c2ccc(Cl)cc2)n1C(C)C
viability, T/C (second compound 0.0316 µM, first compound 0.00949 µM): 99.1% | viability, T/C (second compound 0.0316 µM, first compound 0.03 µM): 103% | viability, T/C (second compound 0.0316 µM, first compound 0.0949 µM): 93.7% | viability, T/C (second compound 0.0316 µM, first compound 0.3 µM): 110% | viability, T/C (second compound 0.0316 µM, first compound 0.949 µM): 109% | viability, T/C (second compound 0.0316 µM, first compound 3 µM): 114% | viability, T/C (second compound 0.1 µM, first compound 0.00949 µM): 101% | viability, T/C (second compound 0.1 µM, first compound 0.03 µM): 108% | viability, T/C (second compound 0.1 µM, first compound 0.0949 µM): 106% | viability, T/C (second compound 0.1 µM, first compound 0.3 µM): 96.8% | viability, T/C (second compound 0.1 µM, first compound 0.949 µM): 124% | viability, T/C (second compound 0.1 µM, first compound 3 µM): 123% | viability, T/C (second compound 0.316 µM, first compound 0.00949 µM): 99.8% | viability, T/C (second compound 0.316 µM, first compound 0.03 µM): 96.3% | viability, T/C (second compound 0.316 µM, first compound 0.0949 µM): 105% | viability, T/C (second compound 0.316 µM, first compound 0.3 µM): 103% | viability, T/C (second compound 0.316 µM, first compound 0.949 µM): 117% | viability, T/C (second compound 0.316 µM, first compound 3 µM): 109% | viability, T/C (second compound 1 µM, first compound 0.00949 µM): 124% | viability, T/C (second compound 1 µM, first compound 0.03 µM): 107% | viability, T/C (second compound 1 µM, first compound 0.0949 µM): 106% | viability, T/C (second compound 1 µM, first compound 0.3 µM): 107% | viability, T/C (second compound 1 µM, first compound 0.949 µM): 118% | viability, T/C (second compound 1 µM, first compound 3 µM): 115% | viability, T/C (second compound 3.16 µM, first compound 0.00949 µM): 115% | viability, T/C (second compound 3.16 µM, first compound 0.03 µM): 102% | viability, T/C (second compound 3.16 µM, first compound 0.0949 µM): 111% | viability, T/C (second compound 3.16 µM, first compound 0.3 µM): 116% | viability, T/C (second compound 3.16 µM, first compound 0.949 µM): 118% | viability, T/C (second compound 3.16 µM, first compound 3 µM): 123% | viability, T/C (second compound 10 µM, first compound 0.00949 µM): 179% | viability, T/C (second compound 10 µM, first compound 0.03 µM): 189% | viability, T/C (second compound 10 µM, first compound 0.0949 µM): 184% | viability, T/C (second compound 10 µM, first compound 0.3 µM): 186% | viability, T/C (second compound 10 µM, first compound 0.949 µM): 172% | viability, T/C (second compound 10 µM, first compound 3 µM): 155%

IC50 (second compound 0.0316 µM): > 1 µM | IC50 (second compound 0.1 µM): > 1 µM | IC50 (second compound 0.316 µM): > 1 µM | IC50 (second compound 1 µM): > 1 µM | IC50 (second compound 3.16 µM): > 1 µM | IC50 (second compound 10 µM): > 1 µM
Compound: CNC(C)C(=O)NC1CN(S(=O)(=O)c2cccc(S(=O)(=O)N3CCC4CCC(C(=O)NC(c5ccccc5)c5ccccc5)N4C(=O)C(NC(=O)C(C)NC)C3)c2)CCC2CCC(C(=O)NC(c3ccccc3)c3ccccc3)N2C1=O (stereo unspecified) + Cc1c(S(C)(=O)=O)c(-c2cc(F)cc(N3CCN(c4ccc(NS(=O)(=O)c5ccc(NC(CCN6CCC(C(=O)OCCCP(=O)(O)O)CC6)CSc6ccccc6)c(S(=O)(=O)C(F)(F)F)c5)cc4)CC3)c2)c(-c2ccc(Cl)cc2)n1C(C)C
viability, T/C (second compound 0.0316 µM, first compound 0.00316 µM): 100% | viability, T/C (second compound 0.0316 µM, first compound 0.01 µM): 92.3% | viability, T/C [1]: 97.5% | viability, T/C [2]: 94.9% | viability, T/C [3]: 98.6% | viability, T/C [4]: 91.8% | viability, T/C (second compound 0.1 µM, first compound 0.00316 µM): 96.6% | viability, T/C (second compound 0.1 µM, first compound 0.01 µM): 98.4% | viability, T/C [5]: 105% | viability, T/C [6]: 93.8% | viability, T/C [7]: 98.6% | viability, T/C [8]: 96.9% | viability, T/C (second compound 0.316 µM, first compound 0.00316 µM): 98.3% | viability, T/C (second compound 0.316 µM, first compound 0.01 µM): 113% | viability, T/C [9]: 97.4% | viability, T/C [10]: 101% | viability, T/C [11]: 103% | viability, T/C [12]: 91.9% | viability, T/C (second compound 1 µM, first compound 0.00316 µM): 101% | viability, T/C (second compound 1 µM, first compound 0.01 µM): 113% | viability, T/C [13]: 105% | viability, T/C [14]: 102% | viability, T/C [15]: 109% | viability, T/C [16]: 88.9% | viability, T/C (second compound 3.16 µM, first compound 0.00316 µM): 104% | viability, T/C (second compound 3.16 µM, first compound 0.01 µM): 104% | viability, T/C [17]: 103% | viability, T/C [18]: 94.9% | viability, T/C [19]: 98.5% | viability, T/C [20]: 90.7% | viability, T/C (second compound 10 µM, first compound 0.00316 µM): 173% | viability, T/C (second compound 10 µM, first compound 0.01 µM): 183% | viability, T/C [21]: 173% | viability, T/C [22]: 160% | viability, T/C [23]: 185% | viability, T/C [24]: 158%
